Results published in patent publication US12246022B2, “Compositions and methods for treating, preventing or reversing age associated inflammation and disorders” (BROWN UNIVERSITY, priority 2019, dated 2025).

Legend:
[1] = test system: IFN-I response; test: IFN-I response in senescent and 3X human fibroblasts (RT-qPCR, ELISA, immunoblotting); format: cell-based
Description: To obtain replicatively senescent (RS) cells, LF1 cultures were serially propagated until proliferation ceased. At each passage, after reaching 80% confluence cells were trypsinized and diluted 1:4. […] In early passage cultures, the time between passages is constant at approximately 3 days. […] At this point, after reaching 80% confluence, the cells were replated at 1:2 dilution, and this time was designated as the last passage (point A in FIG. 2A). […] Under this experimental regimen, the majority of the cells in the culture enter senescence within a 3-4 weeks window centered roughly around the time of last passage (grey bar in FIG. 2A). At point B (4 weeks), the cultures were trypsinized and replated as described^60 to eliminate a small fraction of persisting contact-inhibited cells. Cultures were again replated at point C (8 weeks).
Oncogene-induced senescence (OIS) was elicited by infecting proliferating LF1 cells with pLenti CMV RasV12 Neo (Addgene plasmid #22259). Generation of lentiviral particles and the infection procedure are described below. At the end of the infection, cells were reseeded at 15-20% confluency and selected with G418 (250 μg/ml) maintained continuously until the end of the experiment Medium was changed every 3 days until the cultures were harvested at the indicated time points. Stress-induced premature senescence (SIPS) was elicited by […] irradiation with 20 Gy given at a rate of 87 cGy/min in one fraction using a cesium-137 gamma source (Nordion Gammacell 40). Cells were 15-20% confluent at the time of irradiation. Medium was changed immediately after irradiation, and at 3-day intervals thereafter. […]
The ABI ViiA 7 instrument (Applied Biosystems) was used for all experiments. qPCR of DNA was performed using the TaqMan system (Applied Biosystems) as described by Coufal et al. (2009).^64 […] of purified genomic DNA was used with the indicated primers (see Table 1). […] Effectiveness of the DNase digestion was assessed using controls that omitted the RT enzyme. […]

[2] = format: in vivo; conditions: mice, 1.5, 2.0, 2.5 mg/ml in drinking water from 18 to 24 months
Experimental: C57BL/6J mice of both sexes were obtained from the NIA Aged Rodent Colonies^61 at 5 and 18 months of age. The 5-month old animals were sacrificed after a short (1 week) acclimatization period, a variety of tissues were harvested, snap frozen in LN2 and stored at −80° C. The 18-month old animals were housed until they reached a desired age. Mice were housed in a specific pathogen-free AAALAC-certified barrier facility. Cages, bedding (Sani-chip hardwood bedding) and food (Purina Lab Chow 5010) were sterilized by autoclaving. Food and water (also sterilized) were provided ad libitum. A light-dark cycle of 12 hours was used (7 AM On, 7 PM Off). Temperature was maintained at 70° F., and humidity at 50%. All animals were observed daily and weighed once per week. In a pilot experiment, three cohorts of 10 animals each were treated with 3TC dissolved in drinking water (1.5 mg/ml, 2.0 mg/ml, 2.5 mg/ml) continuously from 18 months until sacrifice at 24 months. The fourth (control) cohort was provided with the same water without drug. […] Once during the experiment (at 20 months of age) the animals were subjected to a single tail bleed of approximately 70 μL. The collected plasma was shipped to the University of North Carolina CFAR Clinical Pharmacology and Analytical Chemistry Core for analysis of 3TC. For the 2 mg/mL cohort the concentration of 3TC in plasma averaged 7.2 μM. […]

Compound | interferon gene expression (IFN-α, IFN-β1) ([1]; LF1, 50 μM, drug for 1 month from 3 months in senescence) | concentration range that optimally inhibited the IFN-I response ([1]; senescent cells) [µM] | behavior, weight, or survival versus control cohort [2]
Nc1nc(=O)n([C@@H]2CS[C@H](CO)O2)cc1F [Emtricitabine] | decreased the expression of interferons |  | 
Nc1ccn([C@@H]2CS[C@H](CO)O2)c(=O)n1 [Lamivudine] |  | 7.5 to 10 | No significant differences in behavior, weight, or survival
